In ChEMBL document CHEMBL1201862, “PubChem BioAssay data set” (2004):
Values joined by “and” are separate entries in the source; they are usually repeats but may differ in a detail not shown here. Identical values can stand only once. Active and inactive are the calls of the source.

What was measured:
[1] = biological target: Tumor necrosis factor (Homo sapiens, UniProt P01375); experiment: analog potency on TNFa NF-kB signaling – cell-based, revised, SAR follow-up (AID 2337); format: functional
[2] = system: HEK293; experiment: cells; settings: Homo sapiens;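 note: cells exposed to compound for 14 hours overnight before viability readout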
[3] = THP-1 cell cytotoxicity, dose response, cytotoxicity control for non-replicating M. tuberculosis project (AID 489025); format: functional
[4] = HepG2 cell cytotoxicity, dose response, cytotoxicity control for non-replicating M. tuberculosis project (AID 489018); format: functional; settings: Mycobacterium tuberculosis
[5] = Vero E6 cell cytotoxicity, dose response, cytotoxicity control for non-replicating M. tuberculosis project, secondary assay (AID 492998); format: functional, VeroE6; settings: Vero C1008
[6] = cells; format: functional
[7] = biological target: Intestinal-type alkaline phosphatase (Mus musculus, UniProt P24822); experiment: PubChem AID 488874; format: functional
[8] = biological target: T1, Intestinal-type alkaline phosphatase (Homo sapiens, UniProt P09923); experiment: human intestinal alkaline phosphatase activators, dose response, biochemical, luminescence, uHTS hits (AID 463120); format: functional
[9] = biological target: T1, Intestinal-type alkaline phosphatase; experiment: activation of human intestinal alkaline phosphatase – biochemical, luminescent, uHTS hits, set 2, dose response (AID 488817); format: functional;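 note: potency of activators that raise enzyme activity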
[10] = biological target: T2, Alkaline phosphatase, tissue-nonspecific isozyme (Homo sapiens, UniProt P05186); experiment: activation of tissue-nonspecific alkaline phosphatase – biochemical, TNAP isozyme, human IAP uHTS hits, selectivity assay for human IAP activator project, dose response (AID 488886); format: functional;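 note: potency of compounds raising TNAP activity as a selectivity check on IAP activators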
T2 sequence (P05186 whole entry): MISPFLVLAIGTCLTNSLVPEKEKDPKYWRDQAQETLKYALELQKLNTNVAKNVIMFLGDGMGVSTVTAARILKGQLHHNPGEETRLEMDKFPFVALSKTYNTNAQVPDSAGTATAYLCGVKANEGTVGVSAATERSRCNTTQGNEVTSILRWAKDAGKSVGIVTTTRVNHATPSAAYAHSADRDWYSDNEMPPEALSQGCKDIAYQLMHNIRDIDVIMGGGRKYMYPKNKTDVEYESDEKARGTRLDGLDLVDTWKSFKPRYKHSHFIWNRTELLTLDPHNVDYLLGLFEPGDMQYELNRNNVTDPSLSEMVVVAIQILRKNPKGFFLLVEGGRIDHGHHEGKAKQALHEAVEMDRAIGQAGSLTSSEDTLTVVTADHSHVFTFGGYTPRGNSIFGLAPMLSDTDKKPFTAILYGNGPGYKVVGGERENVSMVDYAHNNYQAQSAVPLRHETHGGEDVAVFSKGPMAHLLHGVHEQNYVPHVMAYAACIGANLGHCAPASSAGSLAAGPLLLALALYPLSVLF

[11] = biological target: 1-acylglycerol-3-phosphate O-acyltransferase ABHD5/Perilipin-5 (Homo sapiens, UniProt Q00G26+Q8WTS1); experiment: Luminescence-based biochemical high throughput dose response assay for inhibitors of the interaction of the lipase co-activator protein, abhydrolase domain containing 5 (ABHD5) with perilipin-5 (MLDP; PLIN5) (2K validation set). [Related pubchem assays (depositor defined):AID493035, AID493241]
[12] = biological target: Perilipin-1/ABHD5 (Homo sapiens, UniProt O60240+Q8WTS1); experiment: Luminescence-based biochemical high throughput dose response assay for inhibitors of the interaction of the lipase co-activator protein, abhydrolase domain containing 5 (ABHD5) with perilipin-1 (PLIN1) (2K validation set). [Related pubchem assays (depositor defined):AID493027, AID493057]
[13] = biological target: Coagulation factor XII (Homo sapiens, UniProt P00748); format: functional;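 note: activated factor XIIa alpha cleaving a fluorogenic AMC peptide substrate; inhibitor potency from loss of enzyme activity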
[14] = biological target: DNA dC->dU-editing enzyme APOBEC-3A (Homo sapiens, UniProt P31941); experiment: Dose Response confirmation of small molecule APOBEC3A DNA Deaminase Inhibitors via a fluorescence-based single-stranded DNA deaminase assay. [Related pubchem assays (depositor defined):AID493011, AID493024]; format: functional
[15] = biological target: DNA dC->dU-editing enzyme APOBEC-3G (Homo sapiens, UniProt Q9HC16); format: functional;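 note: Dose-response counterscreen measuring inhibition of APOBEC3G DNA deaminase activity, run while confirming APOBEC3A inhibitors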
[16] = biological target: T3, Carboxy-terminal domain RNA polymerase II polypeptide A small phosphatase 1 (Homo sapiens, UniProt Q9GZU7); experiment: CTDSP1 inhibitors, concentration-response, biochemical, absorbance readout, ultra-high-throughput screen actives (AID 540297); format: functional
T3 sequence (Q9GZU7 whole entry): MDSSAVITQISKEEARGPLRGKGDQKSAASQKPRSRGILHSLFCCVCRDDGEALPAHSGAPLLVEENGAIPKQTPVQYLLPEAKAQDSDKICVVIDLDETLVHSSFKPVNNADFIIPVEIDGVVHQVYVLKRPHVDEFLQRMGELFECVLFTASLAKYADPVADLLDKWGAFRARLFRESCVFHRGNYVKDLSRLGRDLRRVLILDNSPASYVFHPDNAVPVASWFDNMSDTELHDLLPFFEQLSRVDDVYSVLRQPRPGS

[17] = biological target: SUMO-activating enzyme (Homo sapiens, UniProt Q9UBT2); experiment: blockers of UBC9-mediated SUMO conjugation – biochemical, AlphaScreen, SUMOylation inhibitor project, confirmation (AID 2018); format: functional
[18] = IC50 of Artemis nuclease activity blockers – biochemical, fluorescence intensity, dose response (AID 720701); format: functional;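 note: Artemis endonuclease enzyme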
[19] = biological target: T4, Cytochrome P450 1A2 (Homo sapiens, UniProt P05177);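 note: PubChem cytochrome P450 panel assay, CYP1A2 panel member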
T4 sequence (P05177 whole entry): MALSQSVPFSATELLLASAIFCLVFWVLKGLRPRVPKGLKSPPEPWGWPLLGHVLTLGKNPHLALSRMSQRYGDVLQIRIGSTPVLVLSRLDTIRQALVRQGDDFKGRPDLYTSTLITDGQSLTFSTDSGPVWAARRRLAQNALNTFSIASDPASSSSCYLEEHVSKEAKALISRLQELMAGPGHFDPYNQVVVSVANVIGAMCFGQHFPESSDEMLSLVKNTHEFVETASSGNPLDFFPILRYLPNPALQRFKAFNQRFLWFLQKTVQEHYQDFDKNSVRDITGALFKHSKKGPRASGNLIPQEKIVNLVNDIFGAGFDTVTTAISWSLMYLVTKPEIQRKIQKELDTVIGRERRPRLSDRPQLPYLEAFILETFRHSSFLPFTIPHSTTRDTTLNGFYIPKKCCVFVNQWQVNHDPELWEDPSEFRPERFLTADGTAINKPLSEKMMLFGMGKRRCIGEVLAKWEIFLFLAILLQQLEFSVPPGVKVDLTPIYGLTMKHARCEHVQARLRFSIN

[20] = biological target: Cytochrome P450 3A4 (Homo sapiens, UniProt P08684);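 note: CYP3A4 tested as one member of a cytochrome P450 panel screen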
[21] = biological target: Ion channel NompC (Danio rerio, UniProt Q7T1G6); experiment: Dose response cell-based high-throughput screening assay for agonists of the transient receptor potential channel N1 (TRPN1). [Related pubchem assays (depositor defined):AID1424, AID1448]; format: functional
[22] = biological target: T5, Mucolipin-3 (Homo sapiens, UniProt Q8TDD5); experiment: Fluorescence counterscreen assay for […] agonists: dose response cell-based high-throughput screening assay to identify agonists of the transient receptor potential channel ML3 (TRPML3). [Related pubchem assays: 1424, 1448 ]; format: functional
T5 sequence (Q8TDD5 whole entry): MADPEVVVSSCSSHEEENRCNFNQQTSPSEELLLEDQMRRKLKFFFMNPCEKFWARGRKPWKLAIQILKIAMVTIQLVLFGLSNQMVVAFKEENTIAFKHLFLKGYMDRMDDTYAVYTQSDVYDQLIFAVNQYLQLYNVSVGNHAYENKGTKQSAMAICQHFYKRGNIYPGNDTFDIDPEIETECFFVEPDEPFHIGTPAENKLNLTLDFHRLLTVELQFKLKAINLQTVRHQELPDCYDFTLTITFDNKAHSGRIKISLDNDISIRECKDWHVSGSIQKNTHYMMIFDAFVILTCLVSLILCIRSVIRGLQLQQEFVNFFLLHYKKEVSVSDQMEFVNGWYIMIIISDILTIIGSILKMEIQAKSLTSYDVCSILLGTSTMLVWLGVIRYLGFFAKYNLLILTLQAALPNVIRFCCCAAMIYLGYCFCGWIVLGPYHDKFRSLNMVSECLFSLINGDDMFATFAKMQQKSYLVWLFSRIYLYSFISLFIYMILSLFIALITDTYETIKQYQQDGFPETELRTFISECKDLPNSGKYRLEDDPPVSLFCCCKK

[23] = biological target: T6, Probable nicotinate-nucleotide adenylyltransferase (Staphylococcus aureus (strain N315), UniProt P65502); format: functional, Staphylococcus aureus subsp. aureus N315;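 for IC50 Mean: confirmatory dose-response retesting of NadD inhibitor hits first found in an ultra-high-throughput screen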
[24] = biological target: T6, Probable nicotinate-nucleotide adenylyltransferase; format: functional, Staphylococcus aureus subsp. aureus N315; settings: read-out: IC50_Mean
[25] = biological target: T7, Mannose-6-phosphate isomerase (Homo sapiens, UniProt P34949); experiment: phosphomannose isomerase inhibition – biochemical, fluorescence intensity, confirmation (AID 1535)
T7 sequence (P34949 whole entry): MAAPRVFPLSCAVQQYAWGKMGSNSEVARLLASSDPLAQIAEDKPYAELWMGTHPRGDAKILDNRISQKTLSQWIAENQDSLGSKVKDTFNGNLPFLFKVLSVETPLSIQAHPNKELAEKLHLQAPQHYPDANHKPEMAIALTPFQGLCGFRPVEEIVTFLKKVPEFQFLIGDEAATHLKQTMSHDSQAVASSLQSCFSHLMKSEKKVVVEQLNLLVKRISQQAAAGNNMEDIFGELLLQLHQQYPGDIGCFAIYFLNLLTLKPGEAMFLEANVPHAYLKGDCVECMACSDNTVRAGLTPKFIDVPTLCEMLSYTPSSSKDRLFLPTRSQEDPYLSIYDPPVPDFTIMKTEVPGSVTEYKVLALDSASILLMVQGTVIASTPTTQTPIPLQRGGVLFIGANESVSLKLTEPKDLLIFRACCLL

[26] = biological target: T8, Phosphomannomutase 2 (Homo sapiens, UniProt O15305); experiment: Counter screen SAR assay for PMM2 inhibitors via a fluorescence intensity assay. [Related pubchem assays (depositor defined):AID1545, AID1574]
T8 sequence (O15305 whole entry): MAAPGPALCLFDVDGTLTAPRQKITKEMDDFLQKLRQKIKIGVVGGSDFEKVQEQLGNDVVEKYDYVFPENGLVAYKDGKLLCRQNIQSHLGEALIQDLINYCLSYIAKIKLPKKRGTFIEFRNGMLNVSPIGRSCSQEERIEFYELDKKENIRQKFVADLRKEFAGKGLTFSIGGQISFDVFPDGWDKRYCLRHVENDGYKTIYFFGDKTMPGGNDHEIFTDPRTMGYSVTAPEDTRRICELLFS

[27] = biological target: Phosphoethanolamine/phosphocholine phosphatase (Homo sapiens, UniProt Q8TCT1); experiment: SAR assay for compounds that inhibit PHOSPHO1. [Related pubchem assays (depositor defined):AID1545, AID1565, AID1574]
[28] = biological target: T2, Alkaline phosphatase, tissue-nonspecific isozyme; experiment: potency against alkaline phosphatase TNAP – biochemical, luminescent, dose response, SAR follow-up (AID 1056)

T6 sequence (P65502 whole entry): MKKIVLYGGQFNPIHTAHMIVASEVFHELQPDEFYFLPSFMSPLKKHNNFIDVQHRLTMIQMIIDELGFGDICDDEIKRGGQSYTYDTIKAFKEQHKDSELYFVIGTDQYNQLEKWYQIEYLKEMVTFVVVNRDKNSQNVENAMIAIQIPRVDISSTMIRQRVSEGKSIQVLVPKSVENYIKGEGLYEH
T1 sequence (P09923 whole entry): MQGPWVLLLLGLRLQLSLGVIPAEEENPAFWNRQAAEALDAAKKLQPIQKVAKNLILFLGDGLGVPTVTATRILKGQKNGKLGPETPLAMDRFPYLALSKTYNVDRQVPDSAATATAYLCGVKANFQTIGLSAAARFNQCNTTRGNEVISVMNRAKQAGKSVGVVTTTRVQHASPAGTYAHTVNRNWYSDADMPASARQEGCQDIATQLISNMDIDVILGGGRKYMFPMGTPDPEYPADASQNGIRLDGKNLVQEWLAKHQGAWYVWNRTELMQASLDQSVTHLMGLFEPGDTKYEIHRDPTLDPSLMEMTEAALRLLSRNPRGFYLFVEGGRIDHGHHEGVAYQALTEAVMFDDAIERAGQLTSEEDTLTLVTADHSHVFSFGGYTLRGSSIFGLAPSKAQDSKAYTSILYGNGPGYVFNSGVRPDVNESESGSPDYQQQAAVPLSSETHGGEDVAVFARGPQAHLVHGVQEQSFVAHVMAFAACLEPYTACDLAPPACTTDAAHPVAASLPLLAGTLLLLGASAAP
Sequence of 1-acylglycerol-3-phosphate O-acyltransferase ABHD5/Perilipin-5 (Q00G26 whole entry, the tested form may be a part): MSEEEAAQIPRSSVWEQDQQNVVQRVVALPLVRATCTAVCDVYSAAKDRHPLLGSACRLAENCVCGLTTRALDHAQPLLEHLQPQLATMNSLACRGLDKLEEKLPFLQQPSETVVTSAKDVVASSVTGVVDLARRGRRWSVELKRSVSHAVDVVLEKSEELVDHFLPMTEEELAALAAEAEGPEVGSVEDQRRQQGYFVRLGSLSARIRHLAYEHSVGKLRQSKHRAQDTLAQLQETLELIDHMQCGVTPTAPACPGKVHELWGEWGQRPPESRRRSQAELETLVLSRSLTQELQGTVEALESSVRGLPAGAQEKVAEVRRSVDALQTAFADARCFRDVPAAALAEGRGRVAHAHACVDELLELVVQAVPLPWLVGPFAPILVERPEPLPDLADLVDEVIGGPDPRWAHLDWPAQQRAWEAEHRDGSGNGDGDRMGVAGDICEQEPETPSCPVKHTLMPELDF
Sequence of 1-acylglycerol-3-phosphate O-acyltransferase ABHD5/Perilipin-5 (Q8WTS1 whole entry, the tested form may be a part): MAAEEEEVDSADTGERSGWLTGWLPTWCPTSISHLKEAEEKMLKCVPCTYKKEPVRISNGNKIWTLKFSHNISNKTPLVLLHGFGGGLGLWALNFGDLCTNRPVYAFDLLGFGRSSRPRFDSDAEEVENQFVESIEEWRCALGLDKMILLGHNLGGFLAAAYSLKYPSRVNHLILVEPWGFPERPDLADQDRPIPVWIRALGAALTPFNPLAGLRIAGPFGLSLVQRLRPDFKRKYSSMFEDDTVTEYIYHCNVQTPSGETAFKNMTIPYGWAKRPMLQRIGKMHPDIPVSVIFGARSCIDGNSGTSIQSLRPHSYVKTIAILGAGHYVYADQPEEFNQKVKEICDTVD
Sequence of Perilipin-1/ABHD5 (Q8WTS1 whole entry, the tested form may be a part): as above
Sequence of Perilipin-1/ABHD5 (O60240 whole entry, the tested form may be a part): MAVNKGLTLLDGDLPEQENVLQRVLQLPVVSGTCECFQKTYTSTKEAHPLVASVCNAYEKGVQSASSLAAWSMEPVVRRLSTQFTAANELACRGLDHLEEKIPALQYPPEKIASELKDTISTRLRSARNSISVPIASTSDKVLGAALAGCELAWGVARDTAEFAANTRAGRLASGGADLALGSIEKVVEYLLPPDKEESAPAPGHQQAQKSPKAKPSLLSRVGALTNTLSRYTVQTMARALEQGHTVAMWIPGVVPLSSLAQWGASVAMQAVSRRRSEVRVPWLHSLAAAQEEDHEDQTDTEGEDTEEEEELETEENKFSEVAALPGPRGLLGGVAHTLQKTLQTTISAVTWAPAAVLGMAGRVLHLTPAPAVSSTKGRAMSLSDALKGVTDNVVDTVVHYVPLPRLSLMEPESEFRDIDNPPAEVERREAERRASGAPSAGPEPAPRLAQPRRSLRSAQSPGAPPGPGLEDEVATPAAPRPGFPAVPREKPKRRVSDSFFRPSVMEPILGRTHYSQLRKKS
Sequence of DNA dC->dU-editing enzyme APOBEC-3G (Q9HC16 whole entry, the tested form may be a part): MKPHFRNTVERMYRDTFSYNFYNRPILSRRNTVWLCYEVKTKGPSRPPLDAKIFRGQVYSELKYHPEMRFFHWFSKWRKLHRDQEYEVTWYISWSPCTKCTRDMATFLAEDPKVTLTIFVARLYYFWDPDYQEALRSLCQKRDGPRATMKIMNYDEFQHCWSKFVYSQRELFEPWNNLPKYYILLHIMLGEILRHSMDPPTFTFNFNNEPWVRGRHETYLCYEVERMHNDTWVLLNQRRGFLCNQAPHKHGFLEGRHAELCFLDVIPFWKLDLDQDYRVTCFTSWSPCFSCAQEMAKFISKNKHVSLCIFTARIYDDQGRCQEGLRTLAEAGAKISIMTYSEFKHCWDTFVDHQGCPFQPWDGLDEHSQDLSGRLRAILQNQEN
Sequence of DNA dC->dU-editing enzyme APOBEC-3A (P31941 whole entry): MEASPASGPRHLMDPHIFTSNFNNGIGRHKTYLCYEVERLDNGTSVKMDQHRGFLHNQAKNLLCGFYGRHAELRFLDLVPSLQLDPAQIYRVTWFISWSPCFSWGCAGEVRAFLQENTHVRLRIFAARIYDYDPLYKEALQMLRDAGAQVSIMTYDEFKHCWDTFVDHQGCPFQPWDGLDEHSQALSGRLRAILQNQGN
Sequence of Coagulation factor XII (P00748 20-372 limits assumed): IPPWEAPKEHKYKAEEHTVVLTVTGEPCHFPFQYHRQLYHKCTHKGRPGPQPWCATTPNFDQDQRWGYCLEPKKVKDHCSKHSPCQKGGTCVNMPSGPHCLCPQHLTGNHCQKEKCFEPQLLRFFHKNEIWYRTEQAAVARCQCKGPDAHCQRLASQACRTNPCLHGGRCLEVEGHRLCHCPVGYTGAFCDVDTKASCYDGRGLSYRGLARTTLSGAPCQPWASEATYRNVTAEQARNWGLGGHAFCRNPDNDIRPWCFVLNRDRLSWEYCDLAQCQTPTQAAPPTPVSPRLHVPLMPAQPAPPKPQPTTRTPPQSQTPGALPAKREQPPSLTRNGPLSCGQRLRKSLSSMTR
Sequence of Coagulation factor XII (P00748 373-615 limits assumed): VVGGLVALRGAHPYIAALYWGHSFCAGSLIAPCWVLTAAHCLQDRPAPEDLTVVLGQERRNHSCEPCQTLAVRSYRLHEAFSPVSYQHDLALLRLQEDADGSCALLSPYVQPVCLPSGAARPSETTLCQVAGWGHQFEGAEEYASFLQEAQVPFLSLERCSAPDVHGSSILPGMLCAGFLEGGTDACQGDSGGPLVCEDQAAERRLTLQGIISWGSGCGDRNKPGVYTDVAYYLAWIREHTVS
Sequence of Cytochrome P450 3A4 (P08684 whole entry): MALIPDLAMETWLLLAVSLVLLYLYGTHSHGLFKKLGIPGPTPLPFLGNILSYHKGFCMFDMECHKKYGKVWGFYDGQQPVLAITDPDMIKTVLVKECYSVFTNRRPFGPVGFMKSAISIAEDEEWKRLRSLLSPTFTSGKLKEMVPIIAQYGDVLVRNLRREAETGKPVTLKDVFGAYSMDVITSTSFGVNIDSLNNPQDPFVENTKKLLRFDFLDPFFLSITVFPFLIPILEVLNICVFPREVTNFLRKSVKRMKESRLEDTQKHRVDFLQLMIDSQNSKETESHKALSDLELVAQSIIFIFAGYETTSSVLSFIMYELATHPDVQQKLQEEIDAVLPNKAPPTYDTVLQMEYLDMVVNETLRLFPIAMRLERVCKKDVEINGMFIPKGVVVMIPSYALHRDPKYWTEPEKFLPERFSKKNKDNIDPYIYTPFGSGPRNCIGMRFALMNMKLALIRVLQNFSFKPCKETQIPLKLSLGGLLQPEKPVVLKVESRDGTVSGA
Sequence of SUMO-activating enzyme (Q9UBE0 whole entry): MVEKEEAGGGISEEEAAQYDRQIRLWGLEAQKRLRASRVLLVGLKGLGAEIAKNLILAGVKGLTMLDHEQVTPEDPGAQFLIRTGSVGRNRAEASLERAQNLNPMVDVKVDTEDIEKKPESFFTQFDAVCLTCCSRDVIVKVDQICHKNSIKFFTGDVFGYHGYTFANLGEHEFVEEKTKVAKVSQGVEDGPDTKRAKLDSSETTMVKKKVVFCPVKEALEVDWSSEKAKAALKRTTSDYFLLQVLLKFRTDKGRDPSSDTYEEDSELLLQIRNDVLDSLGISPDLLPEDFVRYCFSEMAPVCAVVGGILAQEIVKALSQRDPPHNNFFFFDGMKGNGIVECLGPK
Sequence of SUMO-activating enzyme (Q9UBT2 whole entry): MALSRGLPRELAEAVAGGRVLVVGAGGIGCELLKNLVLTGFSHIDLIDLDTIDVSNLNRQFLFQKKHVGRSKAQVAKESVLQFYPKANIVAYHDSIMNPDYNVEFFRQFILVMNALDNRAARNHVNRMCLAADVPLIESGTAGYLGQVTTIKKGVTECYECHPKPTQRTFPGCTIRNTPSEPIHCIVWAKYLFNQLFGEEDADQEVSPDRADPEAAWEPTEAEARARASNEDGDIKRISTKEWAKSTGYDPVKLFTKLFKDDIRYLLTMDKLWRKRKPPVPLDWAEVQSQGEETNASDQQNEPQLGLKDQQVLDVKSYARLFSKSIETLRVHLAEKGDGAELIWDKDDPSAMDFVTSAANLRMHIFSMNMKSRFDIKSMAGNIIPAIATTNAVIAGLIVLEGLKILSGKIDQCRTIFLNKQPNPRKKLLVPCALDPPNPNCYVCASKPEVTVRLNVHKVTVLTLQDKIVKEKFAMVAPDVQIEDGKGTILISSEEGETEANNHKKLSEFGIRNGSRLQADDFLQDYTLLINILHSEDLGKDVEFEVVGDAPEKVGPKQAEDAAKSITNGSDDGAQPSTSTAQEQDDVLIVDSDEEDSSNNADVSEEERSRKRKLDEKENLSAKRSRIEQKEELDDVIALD

## CC(=O)c1ccc(N2CCN(S(=O)(=O)c3ccc4c(c3)CCN4C(C)=O)CC2)cc1
[1]
  IC50: 13.2 µM (active)
[2]
  IC50: > 20 µM (inactive)

## O=C(NC(=S)N1CCc2ccccc21)c1ccccc1
[3]
  CC50: > 40 µM (active)
[4]
  CC50: > 20 µM (active)
[5]
  CC50: > 20 µM (active)
[6]
  IC50: 9.86 µM (active)

## Cc1ccc(S(=O)(=O)NCCC(=O)NNC(=O)COc2ccc(Br)cc2)cc1C
[7]
  IC50: 89.4 µM (active)
[8]
  EC50: 11.5 µM (active)
[9]
  EC50: 16 µM (active)
[10]
  EC50: 16.4 µM (active)

## N#C/C(=C/c1ccccc1)C(=O)NCc1ccccc1
[11]
  IC50: 17.2 µM (inactive)
[12]
  IC50: 13.1 µM (inactive)

## CC(C)=CCC/C(C)=C/CC/C(C)=N/O
[13]
  IC50: > 50 µM (inactive)

## Cc1ccc(C2=NOC(=O)/C2=C\C=C\c2ccccc2)cc1
[11]
  IC50: 1.12 µM (active)
[12]
  IC50: 1.23 µM (active)

## CNS(=O)(=O)c1cc(C(=O)O)ccc1OC
[13]
  IC50: > 50 µM (inactive)

## C=CC#CC1(O)CC(C)[N+](C)(C)CC1C (stereo not drawn)
[14]
  IC50: 1.97 µM (active)
[15]
  IC50: 5.58 µM (active)
[16]
  IC50: 7.57 µM (active)

## CCOc1ccc(-n2c(SCC(=O)Nc3ccc(CC)cc3)nc3nnc(C)c-3c2N)cc1
[17]
  IC50: 36.9 µM (active)

## CCN1CCc2nc(NC(=O)CC(c3ccccc3)c3ccccc3)sc2C1
[18]
  IC50: 9.25 µM (active)
[19]
  AC50: 15.8 µM (inconclusive)
[20]
  AC50: inconclusive

## COc1ccc(C(=O)NNC(=S)NC(=O)c2cc(-c3ccccc3)nc3ccccc23)cc1
[21]
  EC50: > 29.9 µM (inactive)
[22]
  EC50: > 29.9 µM (not active)
[23]
  IC50: 7.14 µM (active)
[24]
  IC50: 26.4 µM (active)

## CCN1C(NCc2cc(OC)c(OC)c(OC)c2)=N[C@@H](c2ccccc2)C(C(=O)OC)=C1C
[14]
  IC50: 4.15 µM (active)
[15]
  IC50: 3.54 µM (active)

## Cc1ccc(C)c(-n2sc3cc(F)ccc3c2=O)c1
[25]
  IC50: 0.985 µM (active)
[26]
  IC50: 9.95 µM (active) and 4.57 µM (active)
[27]
  IC50: 4.1 µM (inactive)
[28]
  IC50: > 100 µM (inactive)
